# Source: PMC3102069, “Charge Isomers of Myelin Basic Protein: Structure and Interactions with Membranes, Nucleotide Analogues, and Calmodulin” (PLoS ONE, 2011)
# Biological target: T1, rmC1 (recombinant murine 18.5-kDa myelin basic protein, C1 charge component); rmC8 is its six-fold Gln variant (Mus musculus, UniProt P04370)
# T1 construct: gene Mbp
# Assay: fluorescence, FRET from Trp to mant (ex […] nm, em […] nm)
# Format: binding
# Details: 0.25 µM rmC1, 0.5-12.5 µM nucleotide, 10 mM HEPES pH 7.5; labelled compound
# T1 sequence (P04370 1-169 isoform P04370-5 limits assumed): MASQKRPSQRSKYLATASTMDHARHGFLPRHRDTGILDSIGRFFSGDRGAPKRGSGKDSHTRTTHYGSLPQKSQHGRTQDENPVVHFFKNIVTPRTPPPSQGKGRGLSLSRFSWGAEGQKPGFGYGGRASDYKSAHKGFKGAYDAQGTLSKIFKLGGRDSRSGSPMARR
smiles,measurement,value
CNc1ccccc1C(=O)O[C@H]1[C@@H](O)[C@H](n2cnc3c(N)ncnc32)O[C@@H]1COP(=O)(O)OP(=O)(O)OP(=O)(O)O [mant-ATP],"fluorescence, FRET from Trp to mant (ex 280 nm, em 448 nm)","while both mant-ATP and mant-GTP bound to rmC1, mant-AMP did not"
